Results from US8263606B2 (Xenon Pharmaceuticals Inc., priority 2008, dated 2012).

Legend:
sodium channel = assay: Guanidine influx assay (14C-guanidine radiotracer flux, in vitro); format: cell-based, human or rat; conditions: guanidine influx assay using a known cell line that expresses a sodium channel
Method in brief: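 Test agents at half-step dilutions around 1 μM are added to plated cells in low-sodium HEPES buffer, then an aconitine/14C-guanidine mixture; after ambient-temperature incubation, cells are washed and counted. IC50 comes from a sigmoidal fit.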

CYP3A4 = CYP3A4 (Homo sapiens, UniProt P08684); assay: Cytochrome P450 (CYP450) Inhibition Assay, CYP3A4 (Vivid fluorescence, BOMCC substrate); conditions: human, P450 Baculosomes (recombinant CYP3A4), probe BOMCC (Vivid substrate)
CYP3A4, sequence (P08684 whole entry): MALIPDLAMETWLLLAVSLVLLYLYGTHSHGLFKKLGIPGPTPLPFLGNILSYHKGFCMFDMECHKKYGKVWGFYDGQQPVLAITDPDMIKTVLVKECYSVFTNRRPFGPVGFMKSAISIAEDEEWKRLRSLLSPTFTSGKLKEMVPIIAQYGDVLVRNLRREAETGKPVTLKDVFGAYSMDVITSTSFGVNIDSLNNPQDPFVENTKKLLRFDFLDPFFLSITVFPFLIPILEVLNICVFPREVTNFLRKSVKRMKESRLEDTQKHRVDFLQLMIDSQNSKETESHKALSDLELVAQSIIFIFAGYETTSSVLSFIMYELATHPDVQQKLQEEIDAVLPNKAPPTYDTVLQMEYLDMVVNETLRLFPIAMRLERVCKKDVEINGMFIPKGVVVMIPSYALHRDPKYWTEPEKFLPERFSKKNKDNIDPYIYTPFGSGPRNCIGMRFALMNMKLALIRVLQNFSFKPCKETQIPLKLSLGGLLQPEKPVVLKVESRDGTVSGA

Compound | IC50 (sodium channel) | melting point | inhibition at 10 µM (CYP3A4) | IC50 (sodium channel; activity level class)
O=C1N(Cc2ncccc2C(F)F)c2ccccc2[C@]12COc1cc3c(cc12)OCCO3 [Example 11.81, (8S)-1′-{[3-(difluoromethyl)pyridin-2-yl]methyl}-2,3-dihydrospiro[furo[2,3-g][1,4]benzodioxine-8,3′-indol]-2′(1′H)-one] | 1 to 100 nM | 181 to 182 °C | < 50% | 
CNC(=O)c1cc(CN2C(=O)C3(COc4cc5c(cc43)OCO5)c3ccccc32)oc1C(F)(F)F (stereo not drawn) [Example 12.57, N-methyl-5-[(2′-oxospiro[furo[2,3-f][1,3]benzodioxole-7,3′-indol]-1′(2′H)-yl)methyl]-2-(trifluoromethyl)furan-3-carboxamide] | 100 to 1000 nM | 202 to 203 °C | > 50% | 
O=C1N(Cc2ccc(C(F)F)o2)c2ccccc2C12COc1cc3c(cc12)OCCO3 (stereo not drawn) [Example 11.110, 1-{[5-(difluoromethyl)furan-2-yl]methyl}-2,3-dihydrospiro[furo[2,3-g][1,4]benzodioxine-8,3′-indol]-2′(1′H)-one] | 1 to 100 nM | 173 to 175 °C | > 50% | 
O=C1N(Cc2cccc(Cl)n2)c2ccccc2C12COc1cc3c(cc12)OCCO3 (stereo not drawn) [Example 5.13, 1′-[(6-chloropyridin-2-yl)methyl]-2,3-dihydrospiro[furo[2,3-g][1,4]benzodioxine-8,3′-indol]-2′(1′H)-one] |  | 181 to 182 °C | > 50% | 1 to 100 nM
Cl.O=C1N(CC2CCNCC2)c2ccccc2C12COc1cc(F)c(F)cc12 (stereo not drawn) [Example 11.111, 5,6-difluoro-1′-(piperidin-4-ylmethyl)spiro[1-benzofuran-3,3′-indol]-2′(1′H)-one hydrochloride] | 1 to 100 nM | > 200 °C | > 50% | 
O=C(O)c1ccc(CN2C(=O)C3(COc4cc5c(cc43)OCCO5)c3ccccc32)cc1 (stereo not drawn) [Example 11.87, 4-[(2′-oxo-2,3-dihydrospiro[furo[2,3-g][1,4]benzodioxine-8,3′-indol]-1′(2′H)-yl)methyl]benzoic acid] | 1000 to 10000 nM | 234 to 237 °C | < 50% | 
O=C1N(C[C@H]2CCCO2)c2cc(F)ccc2C12COc1cc3c(cc12)CCO3 (stereo partly drawn) [Example 9.19, 6′-fluoro-1′-[(2R)-tetrahydrofuran-2-ylmethyl]-5,6-dihydrospiro[benzo[1,2-b:5,4-b′]difuran-3,3′-indol]-2′(1′H)-one] |  | 137 to 139 °C | < 50% | 100 to 1000 nM
O=C1N(C[C@H]2CCCO2)c2ccccc2C12COc1cc3c(cc12)CCCC3 (stereo partly drawn) [Example 4.129, 1-[(2R)-tetrahydrofuran-2-ylmethyl]-5′,6′,7′,8′-tetrahydrospiro[indole-3,3′-naphtho[2,3-b]furan]-2(1′H)-one] |  | 139 to 141 °C | < 50% | 1000 to 10000 nM
Cc1ccc(F)c2c1N(C[C@H]1CCCO1)C(=O)C21COc2cc3c(cc21)CCO3 (stereo partly drawn) [Example 8.3, 4′-fluoro-7′-methyl-1′-[(2R)-tetrahydrofuran-2-ylmethyl]-5,6-dihydrospiro[benzo[1,2-b:5,4-b′]difuran-3,3′-indol]-2′(1′H)-one] |  | 175 to 176 °C | > 50% | 1 to 100 nM
O=C1N(Cc2ccccn2)c2c(F)cccc2C12COc1cc3c(cc12)OCCO3 (stereo not drawn) [Example 8.15, 7′-fluoro-1′-(pyridin-2-ylmethyl)-3,7-dihydro-2H-spiro[benzofuro[5,6-b][1,4]dioxine-8,3′-indolin]-2′-one] |  | 205 to 207 °C | < 50% | 1 to 100 nM
O=C1N(Cc2ccccc2CF)c2ccccc2C12COc1cc3c(cc12)OCCO3 (stereo not drawn) [Example 4.93] |  | 188 to 190 °C | > 50% | 1 to 100 nM
CC(C)CCNCCCN1C(=O)C2(COc3cc4c(cc32)CCO4)c2ccccc21.Cl (stereo not drawn) [Example 15.1, 1′-{3-[(3-methylbutyl)amino]propyl}-5,6-dihydrospiro[benzo[1,2-b:5,4-b′]difuran-3,3′-indol]-2′(1′H)-one hydrochloride] | 1000 to 10000 nM | 98 to 101 °C | > 50% | 
O=C1N(Cc2noc(C3CC3)n2)c2ccccc2C12COc1cc3c(cc12)OCO3 (stereo not drawn) [Example 11.24, 1′-[(5-cyclopropyl-1,2,4-oxadiazol-3-yl)methyl]spiro[furo[2,3-f][1,3]benzodioxole-7,3′-indol]-2′(1′H)-one] | 1 to 100 nM | 136 to 137 °C | > 50% | 
COc1cc2c(cc1C)C1(CO2)C(=O)N(CC2CCCCO2)c2ccccc21 (stereo not drawn) [Example 4.63, 6-methoxy-5-methyl-1′-(tetrahydro-2H-pyran-2-ylmethyl)spiro[1-benzofuran-3,3′-indol]-2′(1′H)-one] |  | 180 to 182 °C | > 50% | 1000 to 10000 nM
COc1ccc(-c2ccc3c(c2)C2(CO3)C(=O)N(Cc3ccc(Cl)s3)c3ccccc32)cn1 (stereo not drawn) [Example 16.88, 1′-[(5-chloro-2-thienyl)methyl]-5-(6-methoxypyridin-3-yl)spiro[1-benzofuran-3,3′-indol]-2′(1′H)-one] | 1000 to 10000 nM | 60 to 62 °C | > 50% | 
CCCCCN1C(=O)[C@]2(COc3cc4c(cc32)CCO4)c2ccccc21 [Example 5.3, (3R)-1′-pentyl-5,6-dihydrospiro[benzo[1,2-b:5,4-b′]difuran-3,3′-indol]-2′(1′H)-one] |  | 128 to 129 °C | > 50% | 1000 to 10000 nM
CCCNC(=O)CN1C(=O)C2(COc3cc4c(cc32)CCO4)c2ccccc21 (stereo not drawn) [Example 12.51, 2-(2′-oxo-5,6-dihydrospiro[benzo[1,2-b:5,4-b′]difuran-3,3′-indol]-1′(2′H)-yl)-N-propylacetamide] | 100 to 1000 nM | 207 to 209 °C | > 50% | 
O=C1N(Cc2ccc(Br)cn2)c2ccccc2C12COc1cc3c(cc12)OCCO3 (stereo not drawn) [Example 1.14, 1′-[(5-bromopyridin-2-yl)methyl]-2,3-dihydrospiro[furo[2,3-g][1,4]benzodioxine-8,3′-indol]-2′(1′H)-one] |  | 201 to 202 °C | > 50% | 1 to 100 nM
O=C1N(C[C@H]2CCCO2)c2cccc(Br)c2C12COc1cc3c(cc12)CCO3 (stereo partly drawn) [Example 4.35, 4′-bromo-1′-[(2R)-tetrahydrofuran-2-ylmethyl]-5,6-dihydrospiro[benzo[1,2-b:5,4-b′]difuran-3,3′-indol]-2′(1′H)-one] |  | 137 to 141 °C | > 50% | 1 to 100 nM
CN1C(=O)C2(C(=O)N(Cc3ccccn3)c3ccccc32)c2cc3c(cc21)OCCO3 (stereo not drawn) [Example 5.19, 6-methyl-1′-(pyridin-2-ylmethyl)-2,3-dihydrospiro[1,4-dioxino[2,3-f]indole-8,3′-indole]-2′,7(1H,6H)-dione] |  | 87 to 89 °C | < 50% | 1000 to 10000 nM
O=C1N(Cc2ccc3ncnn3c2)c2ccccc2C12COc1cc3c(cc12)OCCO3 (stereo not drawn) [Example 39, 1′-([1,2,4]triazolo[1,5-a]pyridin-6-ylmethyl)-2,3-dihydrospiro[furo[2,3-g][1,4]benzodioxine-8,3′-indol]-2′(1′H)-one] | 1 to 100 nM | 207 to 209 °C | > 50% | 
